Tests used:
human orexin-2 receptor = human orexin-2 receptor (Homo sapiens (Human), UniProt O43614); assay: In vitro assay: intracellular calcium measurements (FLIPR), antagonistic activity; format: cell-based; settings: CHO cells expressing human orexin-2 receptor, orexin-A agonist, geometric mean, read-out: IC50 Ox2
Experimental: (§1) In Vitro Assay: Intracellular Calcium Measurements:
(§2) Chinese hamster ovary (CHO) cells expressing the human orexin-1 receptor and the human orexin-2 receptor, respectively, are grown in culture medium (Ham F-12 with L-Glutamine) containing 300 μg/ml G418, 100 U/ml penicillin, 100 μg/ml streptomycin and 10% heat inactivated fetal calf serum (FCS). The cells are seeded at 20,000 cells/well into 384-well black clear bottom sterile plates (Greiner). The seeded plates are incubated overnight at 37° C. in 5% CO2.
(§3) Human orexin-A as an agonist is prepared as 1 mM stock solution in MeOH: water (1:1), diluted in HBSS containing 0.1% bovine serum albumin (BSA), NaHCO3: 0.375 g/l and 20 mM HEPES for use in the assay at a final concentration of 3 nM.
(§4) Antagonists are prepared as 10 mM stock solution in DMSO, then diluted in 384-well plates using DMSO followed by a transfer of the dilutions into in HBSS containing 0.1% bovine serum albumin (BSA), NaHCO3: 0.375 g/l and 20 mM HEPES. On the day of the assay, 50 μl of staining buffer (HBSS containing 1% FCS, 20 mM HEPES, NaHCO3: 0.375 g/l, 5 mM probenecid (Sigma) and […] of the fluorescent calcium indicator fluo-4 AM (1 mM stock solution in DMSO, containing 10% pluronic) is added to each well. The 384-well cell-plates are incubated for 50 min at 37° C. in 5% CO2 followed by equilibration at RT for 30 min before measurement.
(§5) Within the Fluorescent Imaging Plate Reader (FLIPR Tetra, Molecular Devices), antagonists are added to the plate in a volume of 10 μl/well, incubated for 120 min and finally 10 μl/well of agonist is added. Fluorescence is measured for each well at 1 second intervals, and the height of each fluorescence peak is compared to the height of the fluorescence peak induced by an approximate EC70 (for example 5 nM) of orexin-A with vehicle in place of antagonist. The IC50 value (the concentration of compound needed to inhibit 50% of the agonistic response) is determined and may be normalized using the obtained IC50 value of a on-plate reference compound. Optimized conditions are achieved by adjustment of pipetting speed and cell splitting regime. The calculated IC50 values may fluctuate depending on the daily cellular assay performance. Fluctuations of this kind are known to those skilled in the art. Average IC50 values from several measurements are given as geometric mean values.

human orexin-1 receptor = human orexin-1 receptor (Homo sapiens (Human), UniProt O43613); assay: as above; format: cell-based; settings: CHO cells expressing human orexin-1 receptor, orexin-A agonist, geometric mean, read-out: IC50 Ox1
Sequence of human orexin-1 receptor (O43613 whole entry): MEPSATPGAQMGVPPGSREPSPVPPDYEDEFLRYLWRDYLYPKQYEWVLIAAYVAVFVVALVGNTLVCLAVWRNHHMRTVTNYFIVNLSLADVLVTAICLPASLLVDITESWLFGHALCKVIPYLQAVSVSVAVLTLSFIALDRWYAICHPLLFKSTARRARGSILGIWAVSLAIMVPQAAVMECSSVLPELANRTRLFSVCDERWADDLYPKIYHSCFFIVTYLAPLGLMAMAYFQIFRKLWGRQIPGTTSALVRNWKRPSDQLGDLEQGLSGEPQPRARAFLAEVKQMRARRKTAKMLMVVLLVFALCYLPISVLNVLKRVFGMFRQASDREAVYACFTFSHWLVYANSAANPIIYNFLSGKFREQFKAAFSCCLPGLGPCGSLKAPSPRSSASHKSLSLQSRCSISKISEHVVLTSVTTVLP
Experimental: as §1, §2, §3, §4, §5

Sequence of human orexin-2 receptor (O43614 whole entry): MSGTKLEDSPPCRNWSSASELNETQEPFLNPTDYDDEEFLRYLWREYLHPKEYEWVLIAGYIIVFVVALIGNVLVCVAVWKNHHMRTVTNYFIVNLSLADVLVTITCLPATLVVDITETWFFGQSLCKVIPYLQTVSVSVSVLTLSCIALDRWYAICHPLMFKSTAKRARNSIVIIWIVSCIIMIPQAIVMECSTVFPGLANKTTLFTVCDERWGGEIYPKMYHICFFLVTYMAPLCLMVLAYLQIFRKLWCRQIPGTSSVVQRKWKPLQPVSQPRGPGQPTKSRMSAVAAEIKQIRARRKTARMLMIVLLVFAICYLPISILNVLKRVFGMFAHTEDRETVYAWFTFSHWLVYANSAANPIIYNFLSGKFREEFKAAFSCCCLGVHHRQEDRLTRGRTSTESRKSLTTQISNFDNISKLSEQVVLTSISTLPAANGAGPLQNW

| SMILES | IC50 (human orexin-2 receptor) | IC50 (human orexin-1 receptor) |
| --- | --- | --- |
| Cc1nc(C(=O)N2CCC[C@@]2(C)c2nc3cc(OC(F)(F)F)ccc3[nH]2)c(-c2cccc(Cl)c2Cl)s1 [Ex. 5.244] | 641 nM | 62 nM |
| CSc1ccc2nc([C@@H]3CCCN3C(=O)c3cncnc3-c3ccc(C)c(C)c3)[nH]c2c1 [Ex. 1.53] | 90 nM | 616 nM |
| Cc1ccc(-n2nccn2)c(C(=O)N2CCC[C@@]2(C)c2nc3c(Cl)cc(C(F)(F)F)cc3[nH]2)c1 [Ex. 5.14] | 31 nM | 6 nM |
| C=C1CN(C(=O)c2cc(Cl)ccc2-n2nccn2)C(C)(c2nc3cc(OC)ccc3[nH]2)C1 (stereo not shown) [Ex. 6.157] | 21 nM | 70 nM |
| COc1ccccc1-c1ccc(C)cc1C(=O)N1CCC[C@@]1(C)c1nc2cc(C(F)(F)F)c(Cl)cc2[nH]1 [Ex. 5.148] | 159 nM | 35 nM |
| Cc1c(Cl)ccc2[nH]c([C@]3(C)CCCN3C(=O)c3nc(-c4ccc(F)cc4)sc3-c3ccc(F)cc3)nc12 [Ex. 5.227] | 521 nM | 20 nM |
| Cc1ccc(-n2nccn2)c(C(=O)N2CC[C@H](C)[C@H]2c2nc3cc(Cl)cc(C)c3[nH]2)c1 [Ex. 4.39] | 315 nM | 14 nM |
| Cc1cc(C)c2nc(C3CCCN3C(=O)c3nc(C)sc3-c3cccc(Cl)c3)[nH]c2c1 (racemic) [Ex. 1.102] | 17 nM | 17 nM |
| C=C1C[C@@H](c2nc3cc(C)c(C)cc3[nH]2)N(C(=O)c2ccc(C)cc2-n2nccn2)C1 [Ex. 6.198] | 3 nM | 12 nM |
| C=C1CN(C(=O)c2cc(C)ccc2-n2nccn2)C(C)(c2nc3cc(OC)ccc3[nH]2)C1 (stereo not shown) [Ex. 6.156] | 12 nM | 34 nM |
| Cc1ccc(-c2ccc(C(F)(F)F)cc2)c(C(=O)N2CCC[C@@]2(C)c2nc3cc(C(F)(F)F)ccc3[nH]2)c1 [Ex. 5.183] | 1160 nM | 339 nM |
| Cc1ccc(C(=O)N2CCC[C@@]2(C)c2nc3cc(OC(F)(F)F)ccc3[nH]2)c(-c2ccccn2)c1 [Ex. 5.240] | 232 nM | 38 nM |
| COc1cccc(-c2sc(C)nc2C(=O)N2CCC[C@H]2c2nc3cccc(SC)c3[nH]2)c1 [Ex. 1.63] | 9 nM | 12 nM |
| C=C1C[C@@H](c2nc3cc(Cl)c(C(F)(F)F)cc3[nH]2)N(C(=O)c2cc(Cl)ccc2-n2nccn2)C1 [Ex. 6.177] | 6 nM | 13 nM |
| COc1cc2nc([C@]3(C)CCCN3C(=O)c3cncnc3-c3ccccc3)[nH]c2cc1OC [Ex. 5.90] | 473 nM | 232 nM |
| COc1cc(F)ccc1-c1nc(C(=O)N2CCC[C@@]2(C)c2nc3c(C)c(Cl)ccc3[nH]2)c(-c2ccc(F)cc2)s1 [Ex. 5.260] | 2870 nM | 20 nM |
| COc1cc2nc(C3CCCN3C(=O)c3nc(C)sc3-c3ccccc3)[nH]c2cc1OC (stereo not shown) [Ex. 1.134] | 26 nM | 116 nM |
| C=C1C[C@@H](c2nc3ccc(Cl)c(C)c3[nH]2)N(C(=O)c2nc(C)sc2-c2ccc(OC)nc2)C1 [Ex. 6.117] | 3 nM | 19 nM |
| C=C1C[C@@H](c2nc3cccc(C)c3[nH]2)N(C(=O)c2nc(C)ccc2-n2cccn2)C1 [Ex. 6.105] | 77 nM | 1060 nM |
| Cc1ccc(C(=O)N2CC[C@H](C)[C@H]2c2nc3cc(Cl)c(C)cc3[nH]2)c(-n2nccn2)c1 [Ex. 4.72] | 51 nM | 4 nM |
| COc1ccc(-c2sc(C)nc2C(=O)N2C[C@H](OC)C[C@H]2c2nc3ccc(Cl)c(C)c3[nH]2)cc1 [Ex. 3.37] | 8 nM | 8 nM |
| Cc1cc2[nH]c([C@@H]3[C@@H](C)CCN3C(=O)c3ccccc3-n3nccn3)nc2cc1Cl [Ex. 4.76] | 113 nM | 8 nM |
| CSc1cccc2nc([C@@H]3CCCN3C(=O)c3cnc(C)nc3-c3cccc(Cl)c3)[nH]c12 [Ex. 1.81] | 116 nM | 20 nM |
| Cc1ccc(-n2nccn2)c(C(=O)N2CCC[C@@]2(C)c2nc3c(C(C)C)cccc3[nH]2)c1 [Ex. 5.29] | 59 nM | 13 nM |
| Cc1c(Cl)ccc2[nH]c([C@@H]3[C@@H](C)CCN3C(=O)c3cc(F)ccc3-c3ccccc3)nc12 [Ex. 4.164] | 725 nM | 7 nM |

| SMILES | IC50 (human orexin-2 receptor) | IC50 (human orexin-1 receptor) |
| --- | --- | --- |
| Cc1ccc(-n2nccn2)c(C(=O)N2CCC[C@@]2(C)c2nc3c(C)c(Cl)ccc3[nH]2)c1 [Ex. 5.2] | 5 nM | 2 nM |
| COc1ccc(-n2nccn2)c(C(=O)N2C[C@H](OC)C[C@H]2c2nc3ccc(Cl)c(C)c3[nH]2)c1F [Ex. 3.11] | 9 nM | 6 nM |
| Cc1ccc(-c2cccc(F)c2)c(C(=O)N2CCC[C@@]2(C)c2nc3cc(C)c(C)cc3n2CC2CC2)c1 [Ex. 7.34] | 84 nM | 16 nM |
| COc1cc2nc([C@]3(C)CCCN3C(=O)c3cc(C)ccc3-n3nccn3)n(CC3CC3)c2cc1OC [Ex. 7.47] | 60 nM | 39 nM |
| Cc1ccc(-c2ccccc2)c(C(=O)N2CC[C@H](C)[C@H]2c2nc3c(C)c(Cl)ccc3[nH]2)c1 [Ex. 4.172] | 457 nM | 2 nM |
| C=C1C[C@@H](c2nc3ccc(OC)cc3[nH]2)N(C(=O)c2c(-n3nccn3)ccc(C)c2F)C1 [Ex. 6.141] | 9 nM | 883 nM |
| CO[C@H]1CN(C(=O)c2nc(C)sc2-c2ccccc2)C(C)(c2nc3c(C)c(Cl)ccc3[nH]2)C1 (stereo partly shown) [Ex. 3.24] | 12 nM | 5 nM |
| Cc1nc(C(=O)N2CC[C@H](C)[C@H]2c2nc3c(C)cc(Cl)cc3[nH]2)c(-c2ccc(F)cc2)s1 [Ex. 4.100] | 1280 nM | 6 nM |
| Cc1ccc(-n2nccn2)c(C(=O)N2CCC[C@@]2(C)c2nc3cc(C(F)(F)F)ccc3[nH]2)c1F [Ex. 5.169] | 197 nM | 63 nM |
| Cc1nc(C(=O)N2CCC[C@@]2(C)c2nc3c(C)c(C)c(Br)cc3[nH]2)c(-c2ccc(F)cc2)s1 [Ex. 5.276] | 8 nM | 3 nM |
| Cc1nc(C(=O)N2CC[C@H](C)[C@H]2c2nc3cc(C(F)(F)F)ccc3[nH]2)c(-c2ccc(F)c(F)c2)s1 [Ex. 4.143] | 3680 nM | 24 nM |
| Cc1nc(C(=O)N2CC[C@H](C)[C@H]2c2nc3cc(C)c(C)cc3[nH]2)c(-c2cc(F)cc(F)c2)s1 [Ex. 4.89] | 2170 nM | 3 nM |
| C=C1CC(c2nc3cc(OC)ccc3[nH]2)N(C(=O)c2cc(C)sc2-c2ccc(C)c(C)c2)C1 (racemic) [Ex. 6.71] | 2 nM | 24 nM |
| C=C1C[C@@H](c2nc3cccc(C)c3[nH]2)N(C(=O)c2nc(C)sc2-c2ccc(OC)nc2)C1 [Ex. 6.103] | 6 nM | 184 nM |
| COc1cc2nc([C@]3(C)CCCN3C(=O)c3cc(OC(F)(F)F)ccc3-n3nccn3)[nH]c2cc1OC [Ex. 5.84] | 76 nM | 138 nM |
| Cc1nc(C(=O)N2C[C@@H](F)C[C@H]2c2nc3c(C)c(Cl)ccc3[nH]2)c(-c2ccccc2)s1 [Ex. 2.7] | 42 nM | 66 nM |
| Cc1ccc(-c2ccc(C)cc2C(=O)N2CCC[C@@]2(C)c2nc3cc(C)c(C)cc3n2CCF)cc1 [Ex. 7.40] | 39 nM | 23 nM |
| COc1cccc(C#Cc2ccccc2C(=O)N2CC[C@H](C)[C@H]2c2nc3c(C)c(Cl)ccc3[nH]2)c1 [Ex. 4.134] | 86 nM | 1 nM |
| CO[C@H]1CN(C(=O)c2cc(F)ccc2-n2nccn2)C(C)(c2nc3c(C)c(Cl)ccc3[nH]2)C1 (stereo partly shown) [Ex. 3.43] | 13 nM | 10 nM |
| Cc1nc(C(=O)N2CCCC2c2nc3cc(Cl)c(Cl)cc3[nH]2)c(-c2ccccc2)s1 (stereo not shown) [Ex. 1.119] | 77 nM | 27 nM |
| C=C1C[C@@H](c2nc3cc(C(C)(C)C)ccc3[nH]2)N(C(=O)c2nc(C)sc2-c2ccc(C)c(C)c2)C1 [Ex. 6.57] | 11 nM | 11 nM |
| C=C1CC(c2nc3cc(C)c(C)cc3[nH]2)N(C(=O)c2nc(C3CC3)sc2-c2cccc(C)c2)C1 (stereo not shown) [Ex. 6.90] | 1 nM | 6 nM |
| C=C1C[C@@H](c2nc3cc(Cl)c(C)cc3[nH]2)N(C(=O)c2nc(C)sc2-c2ccc(C)c(C)c2)C1 [Ex. 6.55] | 1 nM | 5 nM |
| Cc1ccc(-n2nccn2)c(C(=O)N2CCC[C@@]2(C)c2nc3cc(C)c(C)cc3[nH]2)c1 [Ex. 5.10] | 16 nM | 6 nM |
| COc1cc2nc([C@@H]3[C@@H](C)CCN3C(=O)c3cc(C)ccc3-n3cccn3)[nH]c2cc1OC [Ex. 4.57] | 250 nM | 59 nM |
